One test has as its target Human recombinant IDO1 (Homo sapiens (Human), UniProt P14902). The test can be described thus: IDO1 enzymatic assay (UV absorption at 321 nm). In kind it is biochemical. Particulars: human recombinant IDO1, 80 min incubation, room temperature; read-out: hIDO1 IC50. On the procedure: The detailed experimental method is as follow:
The compounds described in this disclosure were dissolved in 10% DMSO to predefined concentration. All of the reactions were conducted at room temperature in this disclosure. Human recombinant IDO1 (BPS Bioscience) was added so that its concentration was 200 nm in the reaction buffer solution (200 μL). […] 10 μL test compound solution was added into the above reaction solution (200 μL), so that the final concentration of DMSO in all reaction wells was 0.5%. % concentration was volume %. After 80 min incubation of the reaction solution, the UV absorbance was measured using TECAN Infinite M1000 plate reader. For the negative control (blank), 10 μl of the assay buffer was added instead of the IDO1
All reagents (excluding human recombinant IDO1) were purchased from Sigma Aldrich, MO, USA.
The percent activity in the presence of each compound was calculated according to the following equation: % activity=[(A−Ab)/(At−Ab)]×100, where A=the absorption signal in the presence of the compound, Ab=the absorption signal of blank, At=the absorption signal in the absence of the compound. […] The IC50 was calculated using non-linear regression in Graph Pad Prism® 4.

Another test addresses HeLa cell IDO1 (Homo sapiens (Human), UniProt P14902). The test can be described thus: HeLa cell based IDO1 inhibition assay (kynurenine readout, IFN-γ induced). The settings on record: HeLa cells. As to the method: HeLa cell line was purchased from ATCC, cultured in MEM/EBSS medium supplemented with 10% FBS, penn-step (100,000 U/L), non-essential amino acid (0.1 Mm), sodium pyruvate (1.0 Mm). Cells were cultured at 37° C., 95% humidity and 5% CO2. […] The detailed experimental method is as follow:
25,000 HeLa cells were placed on 96-well plates. Each well contained 100 μl culture medium, subsequently IFN-γ and test compounds at specific concentrations (concentration range between 10 μM and 1 Nm, so that the final volume of culture medium was 200 μL) were added and IFN-γ was used to induce IDO1 expression. After incubation, 140 μL supernatant was transferred to 96-well plates. After adding 6.1 N TCA (10 μL), the plates were continuously incubated at 50° C. for 30 min, to hydrolyze N-formylkynurenine produced by IDO to kynurenine. The reaction solution was then centrifuged at 2500 rpm for 10 min to remove precipitate. 100 μL/well supernatant was then transferred to another 96-well plate. 100 μL of 2% (w/v) 4-N,N-dimethyl aminobenzaldehyde acetic acid solution was added and incubated at room temperature for 10 min. The yellow color derived from kynurenine was recorded by measuring absorbance at 480 nm using a microplate reader (TECAN Infinite M1000 Pro).

Another test deals with HeLa cell based IDO1 (Homo sapiens (Human), UniProt P14902). The test can be described thus: Three-point IDO1 cellular assay (HeLa, 10, 100 and 1000 nM). The settings on record: HeLa cells, 100 ng/mL IFN-γ, 18 hours; for inhibition values of %: at 1000 nM. As to the method: To perform the 3-point HeLa cell based IDO1 assay, HeLa cells were seeded at 25,000 cells per well into 96-well microplate in 100 μL of growth medium. Cells were incubated at 37° C. and 5% CO2 overnight. The next day 100 μL per well of diluted inhibitor in growth medium at 10, 100 and 1000 nM, respectively, was added at a final concentration of 100 ng/ML human IFN-γ. Cells were incubated at 37° C. in a CO2 incubator for 18 hours. […] The plate was incubated at 50° C. for 30 min to hydrolyze N-formylkynurenine produced by IDO1 to kynurenine. The plate was then centrifuged at 2500 rpm for 10 min to remove sediments. 100 μl of supernatant per well was transferred to another 96-well plate and mixed with 100 μL of 2% (w/v) 4-(Dimethylamino) benzaldehyde in acetic acid. The plate was incubated at room temperature for 10 minutes, the yellow color derived from kynurenine was recorded by measuring absorbance at 480 nm using a microplate reader (TECAN Infinite M1000 Pro). Cell based assays were performed in triplicate at each concentration. The absorbance data were analyzed using the computer software, Graphpad Prism. In the absence of the compound and presence of 100 ng/ML IFN-γ, the absorbance (At) in each data set was defined as 100%. The absorbance of medium blank (Ab) in each data set was defined as 0%. The percent absorbance in the presence of each compound was calculated according to the following equation: % Absorbance=(A−Ab)/(At−Ab), where A=the absorbance in the presence of the compound and IFN-γ, Ab=the absorbance of medium blank, and At=the absorbance in the absence of the compounds and presence of IFN-γ. The values of % absorbance versus the compound concentrations were then determined.
Chain of HeLa cell based IDO1 (P14902 whole entry): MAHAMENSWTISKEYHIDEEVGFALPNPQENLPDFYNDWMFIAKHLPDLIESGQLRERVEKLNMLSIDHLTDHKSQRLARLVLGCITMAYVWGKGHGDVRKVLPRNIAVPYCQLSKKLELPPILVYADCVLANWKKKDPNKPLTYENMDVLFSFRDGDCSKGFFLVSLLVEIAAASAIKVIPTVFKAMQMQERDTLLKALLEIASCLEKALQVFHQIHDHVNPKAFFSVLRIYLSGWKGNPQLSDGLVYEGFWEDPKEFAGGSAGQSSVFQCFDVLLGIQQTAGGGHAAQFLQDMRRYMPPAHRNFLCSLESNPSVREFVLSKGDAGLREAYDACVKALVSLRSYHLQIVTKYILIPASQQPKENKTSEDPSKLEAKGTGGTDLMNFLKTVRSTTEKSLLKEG

Where only a bound is given, the exact number is not on record here.

Chain of Human recombinant IDO1 (P14902 whole entry): as above
Chain of HeLa cell IDO1 (P14902 whole entry): as above

In general, IC50 refers to the concentration that gives 50% inhibition. On to `O=C(CC1CCCCC1)NC1C2CC3CC1CC(C(O)CC1c4c(F)cccc4-c4cncn41)(C3)C2` (centres unmarked) [Compound 49], for which the half-maximal inhibitory concentration (IC50) at Human recombinant IDO1 and at HeLa cell IDO1 was < 100 nM throughout.

Take `OC(CC1c2ccccc2-c2cncn21)C12CC3CC(CC(O)(C3)C1)C2` (centres unmarked) [Compound 9]: the IC50 at Human recombinant IDO1 is < 100 nM; against HeLa cell IDO1, 100 to 500 nM.

For `OC1C2CC3CC1CC([C@H](O)CC1c4c(F)cccc4-c4cncn41)(C3)C2` (some centres unmarked) [Compound 26A], the IC50 on Human recombinant IDO1 and against HeLa cell IDO1 was < 100 nM in each case. For `OC(CC1c2ncccc2-c2cncn21)C12CC3CC(CC(C3)C1)C2` (centres unmarked) [compound 4], the values for the IC50 at Human recombinant IDO1 and at HeLa cell IDO1 were 100 to 500 nM and 500 to 1000 nM, respectively. On to `O=C(Nc1ccccc1)NC1C2CC3CC1CC(C(O)CC1c4c(F)cccc4-c4cncn41)(C3)C2` (centres unmarked) [Compound 55], for which the IC50 on Human recombinant IDO1 and against HeLa cell IDO1 was < 100 nM each time. Consider `OC(CC1c2cccc(F)c2-c2cncn21)C12CC3CC(CC(C3)C1)C2` (centres unmarked) [compound 8], for which, on Human recombinant IDO1, the IC50 fell in the range of 100 to 500 nM. Regarding `OC(CC1c2c(F)cccc2-c2cncn21)C12CC3CC(CC(C3)C1)C2` (centres unmarked) [Compound 25], the IC50 was < 100 nM on Human recombinant IDO1 and 100 to 500 nM against HeLa cell IDO1. As to `OC1C2CC3CC1CC([C@@H](O)CC1c4ccccc4-c4cncn41)(C3)C2` (some centres unmarked) [Compound 10B], on Human recombinant IDO1, the IC50 was in the range of 100 to 500 nM. For `OC1C2CC3CC1CC(C(O)CC1c4ccccc4-c4cncn41)(C3)C2` (centres unmarked) [Compound 10A], the IC50 on Human recombinant IDO1 and on HeLa cell IDO1 was < 100 nM in each case. Take `OC(CC1c2c(F)cccc2-c2cncn21)C12CC3CC(CC(O)(C3)C1)C2` (centres unmarked) [Compound 22]: the concentration for half-maximal inhibition (IC50) at Human recombinant IDO1 was < 100 nM; against HeLa cell IDO1, 100 to 500 nM. For the molecule `OC1C2CC3CC1CC([C@H](O)CC1c4c(F)cccc4-c4cncn41)(C3)C2` (some centres unmarked) [Compound 23A-2], the IC50 at Human recombinant IDO1 was 1000 to 10000 nM.

For `O=C(C[C@H]1c2ccccc2-c2cncn21)C12CC3CC(CC(C3)C1)C2` (single isomer, unassigned) [Compound 1-1], at Human recombinant IDO1, the 50% inhibitory concentration (IC50) lay in the range of 1000 to 10000 nM. For `OC1C2CC3CC1CC([C@@H](O)CC1c4c(F)cccc4-c4cncn41)(C3)C2` (some centres unmarked) [Compound 23B], the IC50 on Human recombinant IDO1 lay in the range of 100 to 500 nM. Besides, on HeLa cell based IDO1, the “inhibition values of %” value was “greater than 50%”. Take `CC(C)(O)CCOC1C2CC3CC1CC(C(O)CC1c4c(F)cccc4-c4cncn41)(C3)C2` (centres unmarked) [Compound 58]: the IC50 is 100 to 500 nM on Human recombinant IDO1 and < 100 nM on HeLa cell IDO1. `OC(Cn1c2ccccc2n2cncc12)C12CC3CC(CC(C3)C1)C2` (centres unmarked) [Compound 40]: the IC50 at Human recombinant IDO1 was in the range of 1000 to 10000 nM. Take `OC(CC1c2ccccc2-c2cncn21)C12CC3CC(CC(C3)C1)C2` (centres unmarked) [Compound 1]: the results for the IC50 on Human recombinant IDO1 and on HeLa cell IDO1 were < 100 nM and 100 to 500 nM, respectively.

As to `CC1(O)C2CC3CC1CC([C@@H](O)CC1c4ccccc4-c4cncn41)(C3)C2` (some centres unmarked) [Compound 14A-1], at Human recombinant IDO1, the half-inhibitory concentration (IC50) fell in the range of 1000 to 10000 nM.

Consider `CC1(O)C2CC3CC1CC([C@H](O)CC1c4ccccc4-c4cncn41)(C3)C2` (some centres unmarked) [Compound 14A-4], for which the IC50 at Human recombinant IDO1 and against HeLa cell IDO1 was < 100 nM in each case. With `O=C(NC1C2CC3CC1CC(C(O)CC1c4ccccc4-c4cncn41)(C3)C2)c1ccccc1` (single isomer, unassigned) [Compound 52B], the IC50 on Human recombinant IDO1 was 100 to 500 nM; at HeLa cell IDO1, < 100 nM. As for `OC(CC1c2ncccc2-c2cncn21)C1CCCCC1` (centres unmarked) [compound 3], the IC50 at Human recombinant IDO1 is 100 to 500 nM. On to `O=C(NC1C2CC3CC1CC(C(O)CC1c4ccccc4-c4cncn41)(C3)C2)c1ccccc1` (single isomer, unassigned) [Compound 52A], for which the IC50 at Human recombinant IDO1 and at HeLa cell IDO1 was < 100 nM in each case. For the molecule `OC(CC1c2ccccc2-c2cncn21)C12CC3CC(CC(C3)C1)C2` (centres unmarked) [Compound 13], the values for the IC50 on Human recombinant IDO1 and against HeLa cell IDO1 were < 100 nM and 100 to 500 nM, respectively. For `OC1C2CC3CC1CC(C(O)CC1c4ccccc4-c4cncn41)(C3)C2` (centres unmarked) [Compound 10A-3], the IC50 on Human recombinant IDO1 fell in the range of 1000 to 10000 nM. With `O=C(C[C@@H]1c2ccccc2-c2cncn21)C12CC3CC(CC(C3)C1)C2` (single isomer, unassigned) [Compound 1-3], the IC50 at Human recombinant IDO1 and on HeLa cell IDO1 was < 100 nM throughout. `CS(=O)(=O)NC1C2CC3CC1CC(C(O)CC1c4c(F)cccc4-c4cncn41)(C3)C2` (centres unmarked) [Compound 46]: the half-maximal inhibitory concentration (IC50) at Human recombinant IDO1 and on HeLa cell IDO1 was < 100 nM in each case.

For `OC(CC1c2c(F)cccc2-c2cncn21)C12CC3CC(CC(C3)C1)C2` (centres unmarked) [Compound 21], the concentration for half-maximal inhibition (IC50) on Human recombinant IDO1 and against HeLa cell IDO1 was < 100 nM throughout. In the case of `O=S(=O)(Cc1ccccc1)NC1C2CC3CC1CC(C(O)CC1c4c(F)cccc4-c4cncn41)(C3)C2` (centres unmarked) [Compound 45A], the IC50 on Human recombinant IDO1 and on HeLa cell IDO1 was < 100 nM in each case. Consider `OC1C2CC3CC1CC([C@@H](O)CC1c4c(F)cccc4-c4cncn41)(C3)C2` (some centres unmarked) [Compound 23A-4], for which the IC50 at Human recombinant IDO1 lay within 1000 to 10000 nM. As to `OC1C2CC3CC1CC([C@H](O)CC1c4c(F)cccc4-c4cncn41)(C3)C2` (some centres unmarked) [Compound 23A-1], the IC50 on Human recombinant IDO1 was < 100 nM; against HeLa cell IDO1, 100 to 500 nM. As to `OC(CC1c2ccccc2-c2cncn21)C12CC3CC(C1)C(c1ccccc1)C(C3)C2` (centres unmarked) [Compound 62A], the half-inhibitory concentration (IC50) at Human recombinant IDO1 is < 100 nM. In addition, the “inhibition values of %” value at HeLa cell based IDO1 is on record as “greater than 50%”.

In the case of `O=C(C[C@@H]1c2ccccc2-c2cncn21)C12CC3CC(CC(C3)C1)C2` (single isomer, unassigned) [Compound 1-4], the concentration for half-maximal inhibition (IC50) at Human recombinant IDO1 fell in the range of 1000 to 10000 nM. For the molecule `OC(CC1c2cccnc2-c2cncn21)C1CCCCC1` (centres unmarked) [compound 2], the IC50 at Human recombinant IDO1 fell in the range of 1000 to 10000 nM.

In the case of `OC1C2CC3CC1CC([C@H](O)CC1c4c(F)cccc4-c4cncn41)(C3)C2` (some centres unmarked) [Compound 23A], the IC50 at Human recombinant IDO1 and at HeLa cell IDO1 was < 100 nM in each case. In the case of `O=C(C[C@H]1c2ccccc2-c2cncn21)C12CC3CC(CC(C3)C1)C2` (single isomer, unassigned) [Compound 1-2], the IC50 at Human recombinant IDO1 was < 100 nM; at HeLa cell IDO1 it was 100 to 500 nM. For the molecule `OCCOC1C2CC3CC1CC(C(O)CC1c4c(F)cccc4-c4cncn41)(C3)C2` (centres unmarked) [Compound 61A], the IC50 on Human recombinant IDO1 and on HeLa cell IDO1 was < 100 nM in each case. In the case of `OC(CC1c2cc(F)ccc2-c2cncn21)C12CC3CC(CC(C3)C1)C2` (centres unmarked) [compound 7], the IC50 on Human recombinant IDO1 lay within 100 to 500 nM. By inhibition is commonly meant the percentage by which the read-out fell short of the control. The low end stands for a weak effect, the high end for a strong effect. As to `O=C(Cc1ccccc1)NC1C2CC3CC1CC(C(O)CC1c4ccccc4-c4cncn41)(C3)C2` (single isomer, unassigned) [Compound 53A], the IC50 on Human recombinant IDO1 was < 100 nM. Also, the inhibition at 0.1 µM on HeLa cell based IDO1 (at 100 nM) is > 50%. In the case of `OC1C2CC3CC1CC(C(O)CC1c4ccccc4-c4cncn41)(C3)C2` (centres unmarked) [Compound 14A], the IC50 on Human recombinant IDO1 and at HeLa cell IDO1 was < 100 nM each time. With `OC1C2CC3CC1CC([C@@H](O)CC1c4c(F)cccc4-c4cncn41)(C3)C2` (some centres unmarked) [Compound 26A-2], the IC50 on Human recombinant IDO1 lay in the range of 1000 to 10000 nM.

These data come from patent US10202388B2, “Fused-ring compounds, pharmaceutical composition and uses thereof” (SHANGHAI DE NOVO PHARMATECH CO., LTD., priority 2015, dated 2019).
